# Columns and labels:
# [1] = test system: Mycobacterium tuberculosis; test: microbe, parasite or virus in culture; conditions: Mycobacterium tuberculosis, 13946, 168 h
# [2] = test system: Mycobacterium tuberculosis; test: microbe, parasite or virus in culture; conditions: Mycobacterium tuberculosis, 14862, 168 h
Structure (SMILES),MIC [1] [µg/mL],MIC [2] [µg/mL]
O=C(NC12CC3CC(CC(C3)C1)C2)c1cc(-c2ccc(F)cc2F)c[nH]1,< 0.016,< 0.016
O=C(NC1C2CC3CC(C2)CC1C3)c1cc(-c2ccc(F)nc2F)c[nH]1 (stereo unspecified),< 0.016,< 0.016
O=C(NC12CC3CC(CC(C3)C1)C2)c1cc(-c2ccc(F)nc2F)c[nH]1,< 0.016,< 0.016

# Reference: ChEMBL document CHEMBL5126604, “Design, Synthesis, and Biological Evaluation of Pyrrole-2-carboxamide Derivatives as Mycobacterial Membrane Protein Large 3 Inhibitors for Treating Drug-Resistant Tuberculosis” (J Med Chem, 2022)
